Source: patent publication US20250099407A1, “2-AMINO BENZOPHENONE DERIVATIVES FOR TARGETED FERROPTOSIS INDUCTION IN CANCER THERAPY” (INDIAN INSTITUTE OF TECHNOLOGY KANPUR, priority 2023, published 2025)
pEC50: −log10 of the molar value. Read-outs that look alike come from different tables or passages of the source.

How the values were obtained:
Huh-7 cells = experiment: Cell viability, luminescence-based CellTiter-Glo assay, Huh-7 cells
Outline: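 ATP-based CellTiter-Glo luminescence in Huh-7 cells in DMEM, with DMSO (>0.1%) as control. Single-point screens used 10 μM compound with or without Fer-1 (10 μM); dose responses used 8-point 3-fold dilutions from 100/10 μM to 45/4.5 nM. More than two biological replicates with three technical replicates each.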

MCF7 = experiment: Cell viability, CellTiter-Glo assay, MCF7; type: cell-based; details: Homo sapiens
Procedure: (§1) The viability of screened cancer cells was recorded using a luminescence-based CellTiter-Glo® assay for the ATP quantification. The screening concentration of the molecule ranged from 100/10 μM to 45/4.5 nM with an 8-point-3-fold dilution series in DMEM media (>0.1% DMSO as control). Each experiment was conducted in more than two biological replicates with three technical replicates. The error bar is a representation of standard deviation among the technical replicates.
as §1, with “IITK3002” for “the molecule”, “10” for “100/10”, “4.5” for “45/4.5”
(§2) a. […] In parallel, we have also synthesized the bromoacetamide (IITK3002) version of the lead molecules which is slightly more reactive with thiol nucleophiles when compared to chlorooacetamide warheads as depicted in FIG. 13. […] In addition, we also evaluated the molecules' antiproliferative potency against a panel of twelve different cancer phenotypes. […]

HCT116 = experiment: Cell viability, CellTiter-Glo assay, HCT116; type: cell-based; details: Homo sapiens, HCT-116
Procedure: as §1
as §1, with “IITK3002” for “the molecule”, “10” for “100/10”, “4.5” for “45/4.5”
as §2

Jurkat J6 = experiment: Cell viability, CellTiter-Glo assay, Jurkat J6; type: cell-based; details: Homo sapiens
Procedure: as §1
as §1, with “IITK3002” for “the molecule”, “10” for “100/10”, “4.5” for “45/4.5”
as §2

U87MG = experiment: Cell viability, CellTiter-Glo assay, U87MG; type: cell-based; details: Homo sapiens, U-87 MG
Procedure: as §1
as §1, with “IITK3002” for “the molecule”, “10” for “100/10”, “4.5” for “45/4.5”
as §2

4T1 = experiment: Cell viability, CellTiter-Glo assay, 4T1; type: cell-based; details: Mus musculus; 4T1, cell viability
Procedure: as §1
as §1, with “IITK3002” for “the molecule”, “10” for “100/10”, “4.5” for “45/4.5”
as §2

22Rv1 = experiment: Cell viability, CellTiter-Glo assay, 22Rv1; type: cell-based
Procedure: as §1
as §1, with “IITK3002” for “the molecule”, “10” for “100/10”, “4.5” for “45/4.5”
(§3) a. […] In parallel, we have also synthesized the bromoacetamide (IITK3002) version of the lead molecules which is slightly more reactive with thiol nucleophiles when compared to chlorooacetamide warheads as depicted in FIG. 13. […] In addition, we also evaluated the molecules' antiproliferative potency against a panel of twelve different cancer phenotypes. The set of cancer cell lines included liver, breast, colon, myeloma, bone, blood, skin, brain and prostate lineages (FIG. 2, 3, Table 1).

cancer cells = experiment: Antiproliferative potency against cancer cells / panel of cancer cell lines; type: cell-based
Procedure: as §1
as §1, with “IITK3002” for “the molecule”, “10” for “100/10”, “4.5” for “45/4.5”
as §3

[1] = Homo sapiens, Huh-7, Huh-7 cells, antiproliferative activity, read-out: EC50 in Huh-7 cells
[2] = Homo sapiens, Huh-7, Huh-7 cells, cell viability, read-out: EC50 Huh-7
[3] = Huh-7 cells, cell viability, read-out: EC50 Huh-7
[4] = Homo sapiens, 22Rv1, 22Rv1, cell viability
[5] = cell line not stated, read-out: EC50, inhibition of cancer cell proliferation
[6] = range over twelve different cancer phenotypes, read-out: EC50 concentration range across panel of twelve cancer cell lines

CN(C(=O)CBr)c1ccccc1C(=O)c1ccccc1 [IITK3002, N-(2-benzoylphenyl)-2-bromo-N-methylacetamide]
pEC50 (Huh-7 cells; [1]): 7.52
pEC50 (Huh-7 cells; [2]): 7.49
pEC50 (Huh-7 cells; [3]): 7.50
pEC50 (MCF7): 7.70
pEC50 (HCT116): 7.43
pEC50 (Jurkat J6): 7.43
pEC50 (U87MG): 7.10
pEC50 (4T1): 7.18
pEC50 (22Rv1; [4]): 7.40
pEC50 (cancer cells; [5]): 8.52
pEC50 (cancer cells; [6]): 6.88 to 7.70

CN(C(=O)CCl)c1ccccc1C(=O)c1ccccc1 [IITK3001, N-(2-benzoylphenyl)-2-chloro-N-methylacetamide]
screening of electrophilic small molecules, viability of Huh-7 cells (Huh-7 cells; 10 μM with or without Fer-1 (10 μM)): potent inhibitors of Huh-7 cells
pEC50 (Huh-7 cells; [2]): 6.63
pEC50 (Huh-7 cells; [3]): 6.63
pEC50 (MCF7): 6.51
pEC50 (HCT116): 6.77
pEC50 (Jurkat J6): 6.65
pEC50 (U87MG): 6.40
pEC50 (4T1): 6.30
pEC50 (22Rv1; 22Rv1, cell viability): 6.82
pEC50 (22Rv1; [4]): 6.83
pEC50 (cancer cells; [5]): 7.15
pEC50 (cancer cells; [6]): 6.31 to 6.88

C#CCN(C(=O)CCl)c1ccccc1C(=O)c1ccccc1 [IITK3003, N-(2-benzoylphenyl)-2-chloro-N-(prop-2-yn-1-yl)acetamide]
pEC50 (Huh-7 cells; [1]): 7.36
pEC50 (Huh-7 cells; [2]): 7.36
pEC50 (Huh-7 cells; Huh-7 cells, antiproliferative activity, read-out: EC50 in Huh-7 cells): 7.22
pEC50 (22Rv1; [4]): 6.38
